BindingDB's records for doi:10.1021/acs.jmedchem.6b01751 (Queen Mary University of London, 2017)

Test: Inhibition of RIP1 in mouse L929 cells assessed as reduction in TNFalpha/QVD-Oph-induced necrosis after 24 hrs by Cell Titer-Glo luminescent cell viability assay

`CN1C(=O)[C@@H](NC(=O)c2n[nH]c(Cc3ccccc3)n2)COc2ccccc21` gave an IC50 of 1300 nM.

Test: Inhibition of RIP1 in human U937 cells assessed as reduction in TNFalpha/QVD-Oph-induced necrosis after 24 hrs by Cell Titer-Glo luminescent cell viability assay

Point of comparison: `CN1C(=O)[C@@H](NC(=O)c2cc(Cc3ccccc3)on2)COc2ccc(NS(C)(=O)=O)cc21`, IC50 13 nM. Against it:
- CN1C(=O)[C@@H](NC(=O)c2cccc(Cc3ccccc3)c2)COc2ccccc21 — 31-fold higher, 398 nM
- CN1C(=O)[C@@H](NC(=O)c2nnn(Cc3ccccc3)n2)COc2ccccc21 — 5.2-fold lower, 2.5 nM
- CN1C(=O)[C@@H](NC(=O)c2nnc(Cc3ccccc3)o2)COc2ccccc21 — 1.6-fold lower, 7.9 nM
- CC(=O)Nc1ccc2c(c1)N(C)C(=O)[C@@H](NC(=O)c1cc(Cc3ccccc3)on1)CO2 — 1.6-fold lower, 7.9 nM
- CN1C(=O)[C@@H](NC(=O)c2cc(Cc3ccccc3)ccn2)COc2ccccc21 — 3.1-fold higher, 40 nM
- CCCCCc1cc(C(=O)N[C@H]2COc3ccccc3N(C)C2=O)no1 — 9.7-fold higher, 126 nM
- CN1C(=O)[C@@H](NC(=O)c2coc(Cc3ccccc3)n2)COc2ccccc21 — 190-fold higher, 2510 nM
- CN1C(=O)[C@@H](NC(=O)c2ncn(Cc3ccccc3)n2)COc2ccccc21 — 8.1-fold lower, 1.6 nM
- CN1C(=O)[C@@H](NC(=O)c2cc(Cc3ccccc3)on2)COc2ccc(-c3cc[nH]n3)cc21 — 2.1-fold lower, 6.3 nM
- CN1C(=O)[C@@H](NC(=O)c2cc(Cc3ccccc3)n(C)n2)COc2ccccc21 — within 1.5-fold, 10 nM
- CN1C(=O)[C@@H](NC(=O)c2cc(Cc3ccccc3)on2)COc2ccc(-c3n[nH]c(=O)o3)cc21 — 4.1-fold lower, 3.2 nM
- CN1C(=O)[C@@H](NC(=O)c2cn(Cc3ccccc3)cn2)COc2ccccc21 — 2.1-fold lower, 6.3 nM
- CN1C[C@H](NC(=O)c2cc(Cc3ccccc3)on2)C(=O)N(C)c2ccccc21 — 1.5-fold higher, 20 nM
- CN1C(=O)[C@@H](NC(=O)c2ncc(Cc3ccccc3)o2)COc2ccccc21 — 13-fold lower, 1 nM
- CN1C(=O)[C@@H](NC(=O)c2cn(Cc3ccccc3)nn2)COc2ccccc21 — 1.9-fold higher, 25 nM
- CCN1C(=O)[C@@H](NC(=O)c2cc(Cc3ccccc3)on2)COc2ccccc21 — 610-fold higher, 7940 nM
- CC(C)Cc1cc(C(=O)N[C@H]2COc3ccccc3N(C)C2=O)no1 — 490-fold higher, 6310 nM
- CN1C(=O)[C@@H](NC(=O)c2noc(Cc3ccccc3)n2)COc2ccccc21 — 2.6-fold lower, 5 nM
- O=C(N[C@H]1CCOc2ccccc2NC1=O)c1cc(Cc2ccccc2)on1 — 49-fold higher, 631 nM
- COC(=O)Nc1ccc2c(c1)N(C)C(=O)[C@@H](NC(=O)c1cc(Cc3ccccc3)on1)CO2 — within 1.5-fold, 10 nM
- CN1C(=O)[C@@H](NC(=O)c2cnn(Cc3ccccc3)c2)COc2ccccc21 — 49-fold higher, 631 nM
- CN1C(=O)[C@@H](NC(=O)c2c[nH]c(Cc3ccccc3)n2)COc2ccccc21 — 150-fold higher, 2000 nM
- CN1C(=O)[C@@H](NC(=O)c2cc(CC3CCCCC3)on2)COc2ccccc21 — 39-fold higher, 501 nM
